Legend:
[1] = tested on: P. falciparum female gametocytes; experiment: P. falciparum Dual Gamete Formation Assay (PfDGFA), female readout (Pfs25-positive female gametes); format: cell-based, Plasmodium falciparum NF54; conditions: for Average inhibition female (%): average of replicates; for % inhibition female (individual replicates) R1: replicate R1; for % inhibition female (individual replicates) R3: replicate R3; for % inhibition female (individual replicates) R4: replicate R4
In short: (§1)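 Two sex-specific readouts come from one well: male exflagellation centres recorded by brightfield video right after activation, and female gametes scored by Cy3-anti-Pfs25 fluorescence after 24 h at 28°C.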

[2] = tested on: P. falciparum male gametocytes; experiment: P. falciparum Dual Gamete Formation Assay (PfDGFA), male readout (exflagellation); format: cell-based, Plasmodium falciparum NF54; conditions: for Average inhibition male (%): average of replicates; for % inhibition male (individual replicates) R1: replicate R1; for % inhibition male (individual replicates) R3: replicate R3; for % inhibition male (individual replicates) R4: replicate R4; for Activity: hit = >50% inhibition in male or female readout in at least 3 replicates, 0 = no class assigned
In short: as §1

[3] = 2µM, 24h preincubation with gametocytes
[4] = PfDGFA at 2µM, 24h preincubation with gametocytes prior to induction of gametogenesis
[5] = PfDGFA at 2µM, 24h preincubation
[6] = 2µM, 24h preincubation with gametocytes prior to induction of gametogenesis
[7] = 2µM, 24h preincubation, number of replicates with >50% inhibition in the female readout
[8] = 2µM, 24h preincubation, number of replicates with >50% inhibition in the male readout
[9] = PfDGFA at 2µM, 24h preincubation with gametocytes
[10] = 2µM, 24h preincubation, hits selected on >50% inhibition in the female readout across replicates
[11] = 2µM, 24h preincubation, hits selected on >50% inhibition in the male readout across replicates

O=[N+]([O-])c1ccc(C=NO)nc1 [TCMDC-131967]
Average inhibition female (%) [1, 3]: 41.1%
% inhibition female (individual replicates) R1 [1, 3]: 34.5%
% inhibition female (individual replicates) R3 [1, 3]: 28.1%
% inhibition female (individual replicates) R4 [1, 3]: 43.8%
Average inhibition male (%) [2, 3]: 97.7%
% inhibition male (individual replicates) R1 [2, 3]: 97.9%
% inhibition male (individual replicates) R3 [2, 3]: 95.1%
% inhibition male (individual replicates) R4 [2, 3]: 101.6%

CS(=O)(=O)c1ccc(-n2nc(C(F)(F)F)cc2-c2ccc(C=NOCC(=O)O)o2)cc1 [TCMDC-132015]
% inhibition female (individual replicates) R1 [1, 4]: 5.4%
% inhibition female (individual replicates) R3 [1, 4]: -21.4%
% inhibition female (individual replicates) R4 [1, 4]: 0.25%
Average inhibition female (%) [1, 5]: -6.9%
% inhibition male (individual replicates) R1 [2, 4]: 7.6%
% inhibition male (individual replicates) R3 [2, 4]: -4.4%
% inhibition male (individual replicates) R4 [2, 4]: -18.5%
Average inhibition male (%) [2, 5]: -6.3%

CCc1c(CCNCCCCCCNCCc2ccc(Br)cc2)ccc(OC)c1OC.Cl [TCMDC-132045]
% inhibition female (individual replicates) R1 [1, 4]: -8.2%
% inhibition female (individual replicates) R3 [1, 4]: -48.0%
% inhibition female (individual replicates) R4 [1, 4]: -18.3%
Average inhibition female (%) [1, 5]: -21.6%
% inhibition male (individual replicates) R1 [2, 4]: -2.0%
% inhibition male (individual replicates) R3 [2, 4]: 7.0%
% inhibition male (individual replicates) R4 [2, 4]: 22.9%
Average inhibition male (%) [2, 5]: 10.8%

CCc1c(CCNCCCCCCNCCc2ccc(OC)c(OC)c2CC)ccc(OC)c1OC.Cl [TCMDC-132047]
Average inhibition female (%) [1, 6]: 17.9%
% inhibition female (individual replicates) R1 [1, 6]: 11.5%
% inhibition female (individual replicates) R3 [1, 6]: 7.6%
% inhibition female (individual replicates) R4 [1, 6]: 17.6%
HitlevelF [1, 7]: 0
Average inhibition male (%) [2, 6]: 61.2%
% inhibition male (individual replicates) R1 [2, 6]: 56.6%
% inhibition male (individual replicates) R3 [2, 6]: 45.7%
% inhibition male (individual replicates) R4 [2, 6]: 80.2%
HitlevelM [2, 8]: 3

CCc1c(CCNCCCCCCNC(C)Cc2ccc3c(c2CC)OCO3)ccc(OC)c1OC.Cl (stereo not shown) [TCMDC-132052]
Average inhibition female (%) [1, 9]: 26.4%
% inhibition female (individual replicates) R1 [1, 9]: 34.8%
% inhibition female (individual replicates) R3 [1, 9]: 2.4%
% inhibition female (individual replicates) R4 [1, 9]: 23.2%
HitlevelF ([1]; number of replicates with >50% inhibition in the female readout, 2µM): 0
Average inhibition male (%) [2, 9]: 79.1%
% inhibition male (individual replicates) R1 [2, 9]: 84.5%
% inhibition male (individual replicates) R3 [2, 9]: 62.9%
% inhibition male (individual replicates) R4 [2, 9]: 90.9%
HitlevelM ([2]; number of replicates with >50% inhibition in the male readout, 2µM): 4

CCc1c(CCNCCCCCCNCCc2ccc([N+](=O)[O-])cc2)ccc(OC)c1OC.Cl [TCMDC-132066]
Average inhibition female (%) [1, 6]: 24.7%
% inhibition female (individual replicates) R1 [1, 6]: 23.1%
% inhibition female (individual replicates) R3 [1, 6]: 5.5%
% inhibition female (individual replicates) R4 [1, 6]: 16.3%
HitlevelF [1, 7]: 1
Average inhibition male (%) [2, 6]: 38.6%
% inhibition male (individual replicates) R1 [2, 6]: 42.7%
% inhibition male (individual replicates) R3 [2, 6]: 1.6%
% inhibition male (individual replicates) R4 [2, 6]: 56.2%
HitlevelM [2, 8]: 2

CCc1c(CCNCCCCCCNCc2ccc3c(c2CC)OCO3)ccc(OC)c1OC.Cl [TCMDC-132068]
Average inhibition female (%) [1, 6]: 13.2%
% inhibition female (individual replicates) R1 [1, 6]: 18.0%
% inhibition female (individual replicates) R3 [1, 6]: -2.7%
% inhibition female (individual replicates) R4 [1, 6]: 25.3%
HitlevelF [1, 10]: 0
Average inhibition male (%) [2, 6]: 39.4%
% inhibition male (individual replicates) R1 [2, 6]: 42.2%
% inhibition male (individual replicates) R3 [2, 6]: 19.5%
% inhibition male (individual replicates) R4 [2, 6]: 56.9%
HitlevelM [2, 11]: 1
Activity [2, 5]: 0

COc1cc2c(c(Cl)c1OC)CCN(C(=O)C(F)(F)F)CC2c1ccccc1 (stereo not shown) [TCMDC-132071]
% inhibition female (individual replicates) R1 [1, 4]: 4.5%
% inhibition female (individual replicates) R3 [1, 4]: -4.3%
% inhibition female (individual replicates) R4 [1, 4]: 10.0%
Average inhibition female (%) [1, 5]: 2.1%
% inhibition male (individual replicates) R1 [2, 4]: 5.3%
% inhibition male (individual replicates) R3 [2, 4]: 19.8%
% inhibition male (individual replicates) R4 [2, 4]: -8.3%
Average inhibition male (%) [2, 5]: 3.7%

CCc1c(CCNCCCCCCNCCc2ccc3c(c2C)OCO3)ccc2c1OCO2.Cl [TCMDC-132093]
Average inhibition female (%) [1, 6]: 43.6%
% inhibition female (individual replicates) R1 [1, 6]: 28.1%
% inhibition female (individual replicates) R3 [1, 6]: 50.1%
% inhibition female (individual replicates) R4 [1, 6]: 47.8%
HitlevelF [1, 7]: 1
Average inhibition male (%) [2, 6]: 59.8%
% inhibition male (individual replicates) R1 [2, 6]: 52.8%
% inhibition male (individual replicates) R3 [2, 6]: 37.9%
% inhibition male (individual replicates) R4 [2, 6]: 88.2%
HitlevelM [2, 8]: 3

COc1ccc(-c2nc3c(N)nc(N)nc3nc2C(C)C)cc1 [TCMDC-132109]
Average inhibition female (%) [1, 6]: 17.4%
% inhibition female (individual replicates) R1 [1, 6]: 48.8%
% inhibition female (individual replicates) R3 [1, 6]: -20.3%
% inhibition female (individual replicates) R4 [1, 6]: 37.3%
HitlevelF [1, 10]: 0
Average inhibition male (%) [2, 6]: -8.8%
% inhibition male (individual replicates) R1 [2, 6]: -5.9%
% inhibition male (individual replicates) R3 [2, 6]: -23.4%
% inhibition male (individual replicates) R4 [2, 6]: -14.5%
HitlevelM [2, 11]: 0
Activity [2, 5]: 0

Cl.N#Cc1c(F)cc(N2CCC(NCC[C@H](N)Cc3ccc(F)c(F)c3)CC2)cc1F [TCMDC-132121]
Average inhibition female (%) [1, 6]: 20.0%
% inhibition female (individual replicates) R1 [1, 6]: 13.8%
% inhibition female (individual replicates) R3 [1, 6]: 22.9%
% inhibition female (individual replicates) R4 [1, 6]: 12.3%
HitlevelF [1, 7]: 0
Average inhibition male (%) [2, 6]: 31.7%
% inhibition male (individual replicates) R1 [2, 6]: 33.4%
% inhibition male (individual replicates) R3 [2, 6]: 31.1%
% inhibition male (individual replicates) R4 [2, 6]: 56.8%
HitlevelM [2, 8]: 1

O=C(O)C(F)(F)F.O=S(=O)(NCCN1CCCC1)c1ccc(-c2cccc(CNC3Cc4ccccc4C3)c2)s1 [TCMDC-132217]
Average inhibition female (%) [1, 6]: 35.5%
% inhibition female (individual replicates) R1 [1, 6]: 25.9%
% inhibition female (individual replicates) R3 [1, 6]: 15.7%
% inhibition female (individual replicates) R4 [1, 6]: 46.4%
HitlevelF [1, 7]: 1
Average inhibition male (%) [2, 6]: 13.9%
% inhibition male (individual replicates) R1 [2, 6]: 10.5%
% inhibition male (individual replicates) R3 [2, 6]: 7.6%
% inhibition male (individual replicates) R4 [2, 6]: 38.2%
HitlevelM [2, 8]: 0

O=C(O)C(F)(F)F.O=S(=O)(NCCN1CCCC1)c1ccc(-c2cccc(CNC3Cc4ccccc4C3)c2)cc1F [TCMDC-132221]
Average inhibition female (%) [1, 6]: 29.0%
% inhibition female (individual replicates) R1 [1, 6]: 30.1%
% inhibition female (individual replicates) R3 [1, 6]: 27.5%
% inhibition female (individual replicates) R4 [1, 6]: 20.7%
HitlevelF [1, 7]: 0
Average inhibition male (%) [2, 6]: 11.1%
% inhibition male (individual replicates) R1 [2, 6]: 3.1%
% inhibition male (individual replicates) R4 [2, 6]: 19.5%
HitlevelM [2, 8]: 0

COc1ccc(CNCc2ccc(F)cc2)cc1-c1cccc(S(=O)(=O)NCCN2CCCC2)c1.O=C(O)C(F)(F)F [TCMDC-132223]
Average inhibition female (%) [1, 6]: 23.7%
% inhibition female (individual replicates) R1 [1, 6]: 23.5%
% inhibition female (individual replicates) R3 [1, 6]: 4.6%
% inhibition female (individual replicates) R4 [1, 6]: 54.2%
HitlevelF [1, 7]: 1
Average inhibition male (%) [2, 6]: -1.9%
% inhibition male (individual replicates) R1 [2, 6]: -0.6%
% inhibition male (individual replicates) R3 [2, 6]: 2.2%
% inhibition male (individual replicates) R4 [2, 6]: -9.8%
HitlevelM [2, 8]: 0

Reference: PMC10584170, “Machine learning-based phenotypic imaging to characterise the targetable biology of Plasmodium falciparum male gametocytes for the development of transmission-blocking antimalarials” (PLOS Pathogens, 2023)
